Patent US20260356819A1, “OXOISOINDOLINYL-SUBSTITUTED […] DERIVATIVE AND USE THEREOF” (GLUETACS THERAPEUTICS (SHANGHAI) CO., LTD., priority 2023, published 2026)

Columns and labels:
Type in all cases: cell-based
Settings in all cases: compounds at 50 nM and 500 nM
IKZF1 = target: T1, IKZF1 (Homo sapiens, UniProt Q13422+Q96SW2); test: Western blot degradation of IKZF1 in hPBMCs (24 h)
T1 construct: The supernatant was aspirated as the extracted total cell protein; endogenous in cells; host or cells: human peripheral blood mononuclear cells (hPBMCs)
T1 sequence (Q13422 whole entry): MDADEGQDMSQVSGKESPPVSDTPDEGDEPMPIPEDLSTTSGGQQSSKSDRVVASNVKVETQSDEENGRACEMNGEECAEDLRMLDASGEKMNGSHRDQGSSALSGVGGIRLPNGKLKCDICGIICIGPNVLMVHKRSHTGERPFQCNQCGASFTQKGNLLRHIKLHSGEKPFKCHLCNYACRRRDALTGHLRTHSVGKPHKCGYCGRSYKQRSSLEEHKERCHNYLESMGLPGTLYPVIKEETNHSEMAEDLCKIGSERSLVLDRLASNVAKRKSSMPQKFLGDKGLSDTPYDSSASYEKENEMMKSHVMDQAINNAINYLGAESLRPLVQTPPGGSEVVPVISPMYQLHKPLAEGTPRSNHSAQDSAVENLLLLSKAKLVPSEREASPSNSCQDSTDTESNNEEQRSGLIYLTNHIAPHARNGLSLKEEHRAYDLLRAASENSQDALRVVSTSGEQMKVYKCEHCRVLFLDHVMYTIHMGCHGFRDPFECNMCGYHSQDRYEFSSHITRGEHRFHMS
T1 sequence (Q96SW2 whole entry): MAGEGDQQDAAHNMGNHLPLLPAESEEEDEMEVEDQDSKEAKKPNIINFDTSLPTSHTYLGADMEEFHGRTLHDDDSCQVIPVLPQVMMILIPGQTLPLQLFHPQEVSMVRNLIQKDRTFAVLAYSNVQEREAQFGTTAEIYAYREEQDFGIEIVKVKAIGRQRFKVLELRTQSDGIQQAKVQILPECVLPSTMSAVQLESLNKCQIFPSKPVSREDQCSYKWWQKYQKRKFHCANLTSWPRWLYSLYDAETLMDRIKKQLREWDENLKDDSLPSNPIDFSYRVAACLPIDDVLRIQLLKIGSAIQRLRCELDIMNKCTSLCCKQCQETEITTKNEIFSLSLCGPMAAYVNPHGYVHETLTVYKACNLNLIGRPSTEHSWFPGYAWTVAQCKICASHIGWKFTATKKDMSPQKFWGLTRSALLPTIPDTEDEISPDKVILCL
T1 sequence (Q16531 whole entry partner): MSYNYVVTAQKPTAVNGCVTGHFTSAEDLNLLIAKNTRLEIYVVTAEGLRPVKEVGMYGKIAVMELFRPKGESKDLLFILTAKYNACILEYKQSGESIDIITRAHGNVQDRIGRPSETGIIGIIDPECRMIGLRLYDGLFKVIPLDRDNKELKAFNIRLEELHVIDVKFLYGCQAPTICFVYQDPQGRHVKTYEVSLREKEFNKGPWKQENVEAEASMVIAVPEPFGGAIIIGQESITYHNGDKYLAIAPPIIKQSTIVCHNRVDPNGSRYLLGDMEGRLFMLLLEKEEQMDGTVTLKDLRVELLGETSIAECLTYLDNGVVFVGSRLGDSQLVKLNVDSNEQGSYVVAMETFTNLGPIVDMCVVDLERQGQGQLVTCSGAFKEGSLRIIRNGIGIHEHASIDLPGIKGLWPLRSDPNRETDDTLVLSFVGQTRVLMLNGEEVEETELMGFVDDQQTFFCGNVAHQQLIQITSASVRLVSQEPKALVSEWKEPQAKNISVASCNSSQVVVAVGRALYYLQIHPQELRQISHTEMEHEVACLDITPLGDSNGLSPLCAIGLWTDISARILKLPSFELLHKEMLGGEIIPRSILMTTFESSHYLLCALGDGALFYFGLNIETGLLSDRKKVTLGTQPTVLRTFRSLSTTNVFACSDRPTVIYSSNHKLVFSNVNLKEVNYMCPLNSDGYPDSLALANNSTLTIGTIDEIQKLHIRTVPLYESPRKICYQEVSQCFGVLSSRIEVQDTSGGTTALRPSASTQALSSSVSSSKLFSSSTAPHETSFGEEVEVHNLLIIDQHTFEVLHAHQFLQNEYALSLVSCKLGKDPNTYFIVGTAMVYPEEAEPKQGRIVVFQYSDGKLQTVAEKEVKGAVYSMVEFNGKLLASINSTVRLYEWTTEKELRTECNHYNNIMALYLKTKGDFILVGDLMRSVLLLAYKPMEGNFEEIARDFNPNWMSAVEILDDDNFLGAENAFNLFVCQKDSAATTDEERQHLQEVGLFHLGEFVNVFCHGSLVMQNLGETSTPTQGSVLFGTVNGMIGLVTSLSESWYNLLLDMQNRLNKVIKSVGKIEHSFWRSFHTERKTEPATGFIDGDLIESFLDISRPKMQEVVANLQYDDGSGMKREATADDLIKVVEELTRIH
Method: (§1) Conventional Western blot assay was performed to evaluate the effects of the compounds of the present disclosure on the expression of target proteins in cells. • (1) Cell Seeding and Protein Harvesting: Human peripheral blood mononuclear cells (hPBMCs) at a density of 1×10^6 cells/mL were thawed according to the PBMC Recovery Protocol (Milecell Biotechnologies Inc, Shanghai). The cells were then treated with the compounds of the present disclosure (including the compounds listed in Table 1, and the Examples 1-498 compounds) at concentrations of 50 nM and 500 nM. Controls included a negative control (DMSO) and a positive control (the commercial immunomodulatory drug lenalidomide), both processed following the identical experimental protocol as the compounds of the present disclosure. After 24 hours of compounds treatment, cells were harvested and lysed in RIPA protein lysate containing protease inhibitors on ice for 30 min, followed by centrifugation. The supernatant was aspirated as the extracted total cell protein. The protein concentration of the supernatant was determined using the conventional BCA (Bicinchoninic Acid) assay. • (2) To the collected supernatant, 5×SDS sample loading buffer was added, followed by denaturation at 95 °C for 5 minutes. The denatured samples were then separated by SDS-PAGE electrophoresis on a polyacrylamide gel. Proteins were transferred to a nitrocellulose membrane (0.45 μm NC membrane), blocked with blocking buffer at room temperature for 1 hour, and subjected to antibody incubation and development procedures according to the antibody manufacturer's instructions (Cell Signaling Technology).
(§2) Half-Maximal Degradation Concentration value (the drug concentration required for degrading proteins by 50%, abbreviated as DC50) reads method: comparing the grayscale values of Western blot bands from drug-treated samples with those from blank DMSO-treated controls, and identifying the drug concentration range at which the grayscale value is half that of the DMSO-treated control bands.
(§3) DC50 values can be calculated using ImageJ software to measure grayscale values of Western blot bands from drug-treated samples. The concentration-response curve is fitted to estimate the drug concentration corresponding to half the grayscale value.
(§4) Target protein remaining (%) refers to the percentage of target protein remaining in cells after treatment with protein degrader compounds.
(§5) Calculation method for target protein remaining (%): Use ImageJ software to measure grayscale values of Western blot bands from drug (protein degrader)-treated samples. The grayscale value of drug-treated bands is divided by that of internal control protein bands, and the resulting quotient is normalized to obtain the relative percentage of remaining target protein after protein degrader treatment.
(§6) Target protein degradation rate (%)=1−target protein remaining (%).

IKZF3 = target: T2, IKZF3 (Homo sapiens, UniProt Q96SW2+Q9UKT9); test: Western blot degradation of IKZF3 in hPBMCs (24 h)
T2 construct: The supernatant was aspirated as the extracted total cell protein; endogenous in cells; host or cells: human peripheral blood mononuclear cells (hPBMCs)
T2 sequence (Q9UKT9 whole entry): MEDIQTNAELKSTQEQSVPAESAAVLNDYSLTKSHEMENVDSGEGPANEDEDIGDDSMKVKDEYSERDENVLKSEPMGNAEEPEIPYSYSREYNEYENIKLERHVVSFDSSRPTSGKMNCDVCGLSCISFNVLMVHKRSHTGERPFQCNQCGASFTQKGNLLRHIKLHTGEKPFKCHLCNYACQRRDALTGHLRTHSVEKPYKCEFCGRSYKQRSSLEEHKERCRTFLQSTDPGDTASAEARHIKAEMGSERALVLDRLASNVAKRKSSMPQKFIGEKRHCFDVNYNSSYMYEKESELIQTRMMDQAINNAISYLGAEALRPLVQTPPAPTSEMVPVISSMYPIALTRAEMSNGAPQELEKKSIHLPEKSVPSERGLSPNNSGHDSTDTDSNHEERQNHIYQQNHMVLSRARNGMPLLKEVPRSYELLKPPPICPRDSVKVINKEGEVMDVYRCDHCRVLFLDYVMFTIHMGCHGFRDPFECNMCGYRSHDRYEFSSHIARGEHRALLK
T2 sequence (Q96SW2 whole entry): as the sequence (Q96SW2 whole entry) above
T2 sequence (Q16531 whole entry partner): as the sequence (Q16531 whole entry partner) above
Method: as §1, §2, §3, §4, §5, §6

CK1α = target: T3, CK1α (Homo sapiens, UniProt P48729+Q96SW2); test: Western blot degradation of CK1α in hPBMCs (24 h)
T3 construct: The supernatant was aspirated as the extracted total cell protein; endogenous in cells; host or cells: human peripheral blood mononuclear cells (hPBMCs)
T3 sequence (P48729 whole entry): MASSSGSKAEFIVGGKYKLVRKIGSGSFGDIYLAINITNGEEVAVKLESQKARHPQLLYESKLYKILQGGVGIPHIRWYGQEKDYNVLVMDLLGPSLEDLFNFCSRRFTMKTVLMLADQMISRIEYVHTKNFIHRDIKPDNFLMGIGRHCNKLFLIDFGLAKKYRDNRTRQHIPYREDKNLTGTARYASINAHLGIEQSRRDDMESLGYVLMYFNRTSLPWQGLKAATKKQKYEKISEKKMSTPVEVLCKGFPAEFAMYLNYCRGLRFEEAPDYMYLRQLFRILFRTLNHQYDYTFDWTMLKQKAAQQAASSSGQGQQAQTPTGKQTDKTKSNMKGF
T3 sequence (Q96SW2 whole entry): as the sequence (Q96SW2 whole entry) above
T3 sequence (Q16531 whole entry partner): as the sequence (Q16531 whole entry partner) above
Method: as §1, §2, §3, §4, §5, §6

IKZF2 = target: T4, IKZF2 (Homo sapiens, UniProt Q96SW2+Q9UKS7); test: Western blot degradation of IKZF2 in hPBMCs (24 h)
T4 construct: The supernatant was aspirated as the extracted total cell protein; endogenous in cells; host or cells: human peripheral blood mononuclear cells (hPBMCs)
T4 sequence (Q9UKS7 whole entry): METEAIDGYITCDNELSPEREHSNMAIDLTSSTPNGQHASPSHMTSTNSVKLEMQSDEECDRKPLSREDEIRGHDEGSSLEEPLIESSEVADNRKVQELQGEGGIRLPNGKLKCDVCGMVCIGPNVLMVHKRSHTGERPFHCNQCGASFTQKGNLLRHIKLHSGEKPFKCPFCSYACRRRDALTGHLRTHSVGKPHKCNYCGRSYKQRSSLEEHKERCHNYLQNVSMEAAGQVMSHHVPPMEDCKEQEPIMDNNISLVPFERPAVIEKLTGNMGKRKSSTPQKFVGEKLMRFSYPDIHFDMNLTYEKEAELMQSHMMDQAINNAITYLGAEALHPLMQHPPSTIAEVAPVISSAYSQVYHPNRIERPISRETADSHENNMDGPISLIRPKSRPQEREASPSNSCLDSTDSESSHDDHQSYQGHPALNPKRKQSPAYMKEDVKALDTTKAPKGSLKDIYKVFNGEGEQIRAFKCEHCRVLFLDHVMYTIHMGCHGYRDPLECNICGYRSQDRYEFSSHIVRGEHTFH
T4 sequence (Q96SW2 whole entry): as the sequence (Q96SW2 whole entry) above
T4 sequence (Q16531 whole entry partner): as the sequence (Q16531 whole entry partner) above
Method: as §1, §2, §3, §4, §5, §6

GSPT1 = target: T5, GSPT1 (Homo sapiens, UniProt P15170+Q96SW2); test: Western blot degradation of GSPT1 in hPBMCs (24 h)
T5 construct: The supernatant was aspirated as the extracted total cell protein; endogenous in cells; host or cells: human peripheral blood mononuclear cells (hPBMCs)
T5 sequence (P15170 whole entry): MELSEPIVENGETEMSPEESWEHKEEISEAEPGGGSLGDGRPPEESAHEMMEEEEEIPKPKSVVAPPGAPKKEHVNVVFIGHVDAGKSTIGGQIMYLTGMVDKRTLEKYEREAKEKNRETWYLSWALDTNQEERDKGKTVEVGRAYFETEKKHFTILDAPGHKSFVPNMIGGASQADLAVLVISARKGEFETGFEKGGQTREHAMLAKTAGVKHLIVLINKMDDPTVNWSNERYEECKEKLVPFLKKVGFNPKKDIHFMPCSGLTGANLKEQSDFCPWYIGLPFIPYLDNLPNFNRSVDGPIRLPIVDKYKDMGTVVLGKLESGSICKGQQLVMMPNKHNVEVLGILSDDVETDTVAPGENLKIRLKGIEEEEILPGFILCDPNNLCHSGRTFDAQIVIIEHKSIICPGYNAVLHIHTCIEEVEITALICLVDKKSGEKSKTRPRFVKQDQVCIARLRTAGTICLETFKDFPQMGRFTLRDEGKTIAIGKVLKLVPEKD
T5 sequence (Q96SW2 whole entry): as the sequence (Q96SW2 whole entry) above
T5 sequence (Q16531 whole entry partner): as the sequence (Q16531 whole entry partner) above
Method: as §1, §2, §3, §4, §5, §6

| SMILES | IKZF1 substrate protein remaining % (IKZF1) | IKZF3 substrate protein remaining % (IKZF3) | CK1α substrate protein remaining % (CK1α) | IKZF2 substrate protein remaining % (IKZF2) | GSPT1 substrate protein remaining % (GSPT1) |
| --- | --- | --- | --- | --- | --- |
| O=C1CCN(N2Cc3cc(CN4CCN(c5ncccc5C(F)(F)F)CC4)ccc3C2=O)C(=O)N1 [GT-05174, 1-(1-oxo-5-((4-(3-(trifluoromethyl)pyridin-2-yl)piperazin-1-yl)methyl)isoindolin-2-yl)dihydropyrimidine-2,4(1H,3H)-dione] | B (80%< substrate protein remaining % ≤100%) | B (80%< substrate protein remaining % ≤100%) | B (80%< substrate protein remaining % ≤100%) | – | – |
| O=C1CCN(N2Cc3cc(CN4CCN(c5ccc(C(F)(F)F)cn5)CC4)ccc3C2=O)C(=O)N1 [GT-05176, 1-(1-oxo-5-((4-(5-(trifluoromethyl)pyridin-2-yl)piperazin-1-yl)methyl)isoindolin-2-yl)dihydropyrimidine-2,4(1H,3H)-dione] | B (80%< substrate protein remaining % ≤100%) | – | B (80%< substrate protein remaining % ≤100%) | B (80%< substrate protein remaining % ≤100%) | – |
| O=C1CCN(N2C(=O)c3ccc(CN4CCN(c5ccccn5)CC4)cc3C2=O)C(=O)N1 [GT-05351, 2-(2,4-dioxotetrahydropyrimidin-1(2H)-yl)-5-((4-(pyridin-2-yl)piperazin-1-yl)methyl)isoindoline-1,3-dione] | B (80%< substrate protein remaining % ≤100%) | B (80%< substrate protein remaining % ≤100%) | B (80%< substrate protein remaining % ≤100%) | A (0% ≤ substrate protein remaining % ≤80%) | – |
| O=C1CCN(N2C(=O)c3ccc(CN4CCN(c5cc(Cl)ccn5)CC4)cc3C2=O)C(=O)N1 [GT-05354, 5-((4-(4-chloropyridin-2-yl)piperazin-1-yl)methyl)-2-(2,4-dioxotetrahydropyrimidin-1(2H)-yl)isoindoline-1,3-dione] | B (80%< substrate protein remaining % ≤100%) | – | B (80%< substrate protein remaining % ≤100%) | – | A (0% ≤ substrate protein remaining % ≤80%) |
| O=C1CCN(N2Cc3cc(CN4CCN(c5ncc(Cl)cc5Cl)CC4)ccc3C2=O)C(=O)N1 [GT-05356, 1-(5-((4-(3,5-dichloropyridin-2-yl)piperazin-1-yl)methyl)-1-oxoisoindolin-2-yl)dihydropyrimidine-2,4(1H,3H)-dione] | B (80%< substrate protein remaining % ≤100%) | B (80%< substrate protein remaining % ≤100%) | B (80%< substrate protein remaining % ≤100%) | – | – |
| O=C1CCN(N2Cc3cc(CN4CCN(c5nccc(F)c5F)CC4)ccc3C2=O)C(=O)N1 [GT-05357, 1-(5-((4-(3,4-difluoropyridin-2-yl)piperazin-1-yl)methyl)-1-oxoisoindolin-2-yl)dihydropyrimidine-2,4(1H,3H)-dione] | B (80%< substrate protein remaining % ≤100%) | B (80%< substrate protein remaining % ≤100%) | B (80%< substrate protein remaining % ≤100%) | B (80%< substrate protein remaining % ≤100%) | – |
| O=C1CCN(N2Cc3cc(CN4CCN(c5nccc(I)c5F)CC4)ccc3C2=O)C(=O)N1 [GT-05406, 1-(5-((4-(3-fluoro-4-iodopyridin-2-yl)piperazin-1-yl)methyl)-1-oxoisoindolin-2-yl)dihydropyrimidine-2,4(1H,3H)-dione] | B (80%< substrate protein remaining % ≤100%) | B (80%< substrate protein remaining % ≤100%) | B (80%< substrate protein remaining % ≤100%) | – | A (0% ≤ substrate protein remaining % ≤80%) |
